# Test results reported in patent US20170088520A1, “DEUBIQUITINASE INHIBITORS” (PharmAkea, Inc., priority 2014, published 2017).
# Columns and labels:
# Type in all cases: cell-based
# [1] = molecular target: T1, DUB activity in cells (NCI-H929, Z138, MM.1S, A375) (Homo sapiens, UniProt Q93008); test: HA-Ubiquitin-Vinylsulfone (HA-Ub-VS) cell labeling assay; settings: compound tested at 5 μM; HA-Ub-VS labeling of USP9x in cells
# T1 construct: endogenous in cells; host or cells: NCI-H929, Z138, MM.1S, A375
# Procedure: Example B-1: HA-Ubiqutin-Vinylsulfone (HA-Ub-VS) Cell Labeling
# Inhibitition of DUB activity is measured in cells (NCI-H929, Z138, MM.1S, A375) using a hemaglutinin-ubiquitin-vinylsulfone (HA-Ub-VS) labeling assay. Briefly, 1-2×10^6 cells are plated in 12-well plates in 1 ml complete growth media and 250 μl of test compound in 0.5% dimethylsulfoxide (or DMSO control) is added to each well. Plates are incubated at 37° C., 5% CO2 for 2-6 hours before cells are harvested into eppendorf tubes, washed once in PBS and resuspended in 100 μl cold lysis buffer (50 mM Tris pH 8, 150 mM NaCl, 0.5% NP-40, 2 mM phenylmethylsulfonyl fluoride and complete protease inhibitor tablet). Resupended cells are frozen on dry ice, then thawed and incubated on ice for 15 minutes. Tubes are centrifuged for 10 minutes at 14,000 rpm at 4° C. and the cleared supernatants transferred to clean tubes. […] The samples are incubated 15-60 min at 37° C. before the addition of SDS gel loading buffer. Proteins are separated by SDS-PAGE, transferred to nitrocellulose and the blot probed with anti-HA antibody and anti-β-actin antibodies. The HA and β-actin antibodies are detected using secondary antibodies coupled to IRdye 800 or IRdye 680 and visualized and quantitated using the LiCor Odyssey machine.
# (§1) The following compounds were tested in the above assays at 5 μM: […]
# [2] = test system: Mcl-1 expression in cells (NCI-H929, Z138, MM.1S, A-375); test: Analysis of Mcl-1 expression by Western blotting; settings: compound tested at 5 μM; Western blot
# Procedure: (§2) Example B-2: Analysis of Md-1 Expression and PARP Cleavage
# (§3) The ability of test compounds to decrease expression of the tumor promoting protein, Mcl-1, and to induce the inactivation/cleavage of the PARP protein is evaluated in cells (NCI-H929, Z138, MM.1S, A-375) by Western blotting. Cells are plated and treated as described in the HA-Ub-VS cell labeling assay (see above). A portion of the cleared lysate (15-50 μl) is run on an SDS-polyacrylamide gel to separate proteins and then transferred to nitrocellulose. After transfer to nitrocellulose, the proteins are detected by probing the blot with anti-Mcl-1 and anti-PARP antibodies followed by secondary antibodies coupled to IRdye 800 and IRdye 680 and visualization and quantitation using a LiCor Odyssey machine. Activity of the test compound is identified as a significant decrease in Mcl-1 expression relative to the vehicle treated cells and to the appearance of a cleaved fragment of PARP relative to the vehicle-treated cells.
# as §1
# [3] = test system: PARP cleavage in cells (NCI-H929, Z138, MM.1S, A-375); test: Analysis of PARP cleavage by Western blotting; settings: compound tested at 5 μM; Western blot
# Procedure: as §2, §3, §1
# T1 sequence (Q93008 whole entry): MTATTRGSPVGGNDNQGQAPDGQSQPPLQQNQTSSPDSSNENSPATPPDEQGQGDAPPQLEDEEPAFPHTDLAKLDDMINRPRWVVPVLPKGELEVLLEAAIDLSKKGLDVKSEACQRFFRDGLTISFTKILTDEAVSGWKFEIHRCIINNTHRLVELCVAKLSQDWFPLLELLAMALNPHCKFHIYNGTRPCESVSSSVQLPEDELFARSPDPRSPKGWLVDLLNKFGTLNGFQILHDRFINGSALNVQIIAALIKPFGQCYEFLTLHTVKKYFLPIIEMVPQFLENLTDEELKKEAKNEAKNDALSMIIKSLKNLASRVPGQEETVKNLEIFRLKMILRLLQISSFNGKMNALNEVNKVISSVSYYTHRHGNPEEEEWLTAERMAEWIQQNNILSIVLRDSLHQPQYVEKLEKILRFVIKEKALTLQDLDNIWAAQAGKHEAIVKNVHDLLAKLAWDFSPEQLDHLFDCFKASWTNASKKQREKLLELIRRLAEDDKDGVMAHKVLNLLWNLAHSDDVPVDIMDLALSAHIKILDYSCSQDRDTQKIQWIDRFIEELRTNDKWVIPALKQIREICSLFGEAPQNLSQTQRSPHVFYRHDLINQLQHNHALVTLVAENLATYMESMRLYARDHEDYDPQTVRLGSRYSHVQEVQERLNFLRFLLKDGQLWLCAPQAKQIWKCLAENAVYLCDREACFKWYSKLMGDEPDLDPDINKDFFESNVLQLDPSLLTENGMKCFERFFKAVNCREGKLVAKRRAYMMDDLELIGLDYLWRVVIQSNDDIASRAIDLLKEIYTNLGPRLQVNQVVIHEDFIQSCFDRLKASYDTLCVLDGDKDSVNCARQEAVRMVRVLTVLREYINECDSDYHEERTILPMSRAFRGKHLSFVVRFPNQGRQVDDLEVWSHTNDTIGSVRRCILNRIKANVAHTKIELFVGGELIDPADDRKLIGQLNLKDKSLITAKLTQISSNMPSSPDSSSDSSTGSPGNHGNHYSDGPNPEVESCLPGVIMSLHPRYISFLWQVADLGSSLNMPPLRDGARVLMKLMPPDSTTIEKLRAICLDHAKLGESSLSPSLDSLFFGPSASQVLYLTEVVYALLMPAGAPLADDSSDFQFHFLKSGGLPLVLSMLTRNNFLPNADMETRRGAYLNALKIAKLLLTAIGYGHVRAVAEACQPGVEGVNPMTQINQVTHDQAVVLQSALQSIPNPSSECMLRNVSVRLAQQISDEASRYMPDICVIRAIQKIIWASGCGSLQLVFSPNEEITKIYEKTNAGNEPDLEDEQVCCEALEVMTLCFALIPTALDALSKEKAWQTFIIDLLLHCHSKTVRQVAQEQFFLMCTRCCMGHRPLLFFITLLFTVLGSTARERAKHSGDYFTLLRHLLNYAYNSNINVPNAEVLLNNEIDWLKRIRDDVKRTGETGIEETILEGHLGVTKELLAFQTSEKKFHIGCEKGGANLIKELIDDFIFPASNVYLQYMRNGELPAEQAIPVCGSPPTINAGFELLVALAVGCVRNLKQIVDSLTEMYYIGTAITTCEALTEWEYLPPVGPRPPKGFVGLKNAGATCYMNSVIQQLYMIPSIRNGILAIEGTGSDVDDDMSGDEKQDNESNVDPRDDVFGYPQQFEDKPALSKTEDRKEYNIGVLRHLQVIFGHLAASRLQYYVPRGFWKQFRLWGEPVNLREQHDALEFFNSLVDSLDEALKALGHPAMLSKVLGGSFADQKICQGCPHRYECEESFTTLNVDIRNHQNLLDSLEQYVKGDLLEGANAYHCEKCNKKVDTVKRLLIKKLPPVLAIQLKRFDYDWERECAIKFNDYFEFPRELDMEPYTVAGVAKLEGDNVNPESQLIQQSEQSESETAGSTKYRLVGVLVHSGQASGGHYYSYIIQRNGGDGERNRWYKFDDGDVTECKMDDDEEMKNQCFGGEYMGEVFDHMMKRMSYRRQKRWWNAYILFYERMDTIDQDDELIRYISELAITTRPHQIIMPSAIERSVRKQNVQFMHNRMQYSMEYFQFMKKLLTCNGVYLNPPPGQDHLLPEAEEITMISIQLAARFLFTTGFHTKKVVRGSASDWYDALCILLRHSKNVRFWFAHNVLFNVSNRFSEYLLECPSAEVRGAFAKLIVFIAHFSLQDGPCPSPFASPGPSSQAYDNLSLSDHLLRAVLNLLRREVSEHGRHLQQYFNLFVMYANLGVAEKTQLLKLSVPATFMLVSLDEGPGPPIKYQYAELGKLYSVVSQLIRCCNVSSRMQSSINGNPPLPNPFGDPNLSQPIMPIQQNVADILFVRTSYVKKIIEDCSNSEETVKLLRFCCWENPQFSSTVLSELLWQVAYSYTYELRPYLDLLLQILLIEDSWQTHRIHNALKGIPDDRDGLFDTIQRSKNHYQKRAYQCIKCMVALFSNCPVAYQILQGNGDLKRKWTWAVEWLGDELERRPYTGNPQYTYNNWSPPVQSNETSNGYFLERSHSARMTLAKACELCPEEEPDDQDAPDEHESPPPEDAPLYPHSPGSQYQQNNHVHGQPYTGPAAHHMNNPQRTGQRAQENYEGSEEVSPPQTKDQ
SMILES,inhibition at 5 µM [1],inhibition at 5 µM [2],PARP cleavage % Inhibition [3]
"N#C/C(=C\c1cccc(Br)n1)C(=O)NC1(c2ccccc2)CCCC1 [Compound 1, (E)-3-(6-Bromopyridin-2-yl)-2-cyano-N-(1-phenylcyclopentyl)acrylamide]",≥ 75%,≥ 75%,A (A is ≧75% inhibition)
"N#C/C(=C\c1cccc(Br)n1)C(=O)NC1(c2ccccc2)CC1 [Compound 2, (E)-3-(6-Bromopyridin-2-yl)-2-cyano-N-(1-phenylcyclopropyl)acrylamide]",< 25%,< 25%,C (C is 25% to 50% inhibition)
"N#C/C(=C\c1cccc(Br)n1)C(=O)NC1(c2ccccc2)CCC1 [Compound 3, (E)-3-(6-Bromopyridin-2-yl)-2-cyano-N-(1-phenylcyclobutyl)acrylamide]",< 25%,< 25%,B (B is 50% to 75% inhibition)
"N#C/C(=C\c1ncc(Br)cc1Br)C(=O)NC1(c2ccccc2)CCCC1 [Compound 4, (E)-3-(3,5-Dibromopyridin-2-yl)-2-cyano-N-(1-phenylcyclopentyl)acrylamide]",≥ 75%,≥ 75%,A (A is ≧75% inhibition)
"N#C/C(=C\c1ncc(Cl)cc1F)C(=O)NC1(c2ccccc2)CCCC1 [Compound 5, (E)-3-(3-Fluoro-5-chloropyridin-2-yl)-2-cyano-N-(1-phenylcyclopentyl)acrylamide]",≥ 75%,≥ 75%,A (A is ≧75% inhibition)
"N#C/C(=C\c1nc(Br)ccc1F)C(=O)NC1(c2ccccc2)CCCC1 [Compound 6, (E)-3-(3-Fluoro-6-bromopyridin-2-yl)-2-cyano-N-(1-phenylcyclopentyl)acrylamide]",≥ 75%,≥ 75%,A (A is ≧75% inhibition)
"N#C/C(=C\c1nc(Cl)ccc1Cl)C(=O)NC1(c2ccccc2)CCCC1 [Compound 7, (E)-3-(3,6-Dichloropyridin-2-yl)-2-cyano-N-(1-phenylcyclopentyl)acrylamide]",50 to 75%,≥ 75%,A (A is ≧75% inhibition)
"N#C/C(=C\c1ncccc1F)C(=O)NC1(c2ccccc2)CCCC1 [Compound 8, (E)-3-(3-Fluoropyridin-2-yl)-2-cyano-N-(1-phenylcyclopentyl)acrylamide]",< 25%,< 25%,D (D is <25% inhibition)
"N#C/C(=C\c1ncc(Br)cc1F)C(=O)NC1(c2ccccc2)CCCC1 [Compound 9, (E)-3-(5-Bromo-3-fluoropyridin-2-yl)-2-cyano-N-(1-phenylcyclopentyl)acrylamide]",≥ 75%,≥ 75%,A (A is ≧75% inhibition)
"N#C/C(=C\c1nc(Cl)ccc1Br)C(=O)NC1(c2ccccc2)CCCC1 [Compound 10, (E)-3-(3-Bromo-6-chloropyridin-2-yl)-2-cyano-N-(1-phenylcyclopentyl)acrylamide]",50 to 75%,≥ 75%,B (B is 50% to 75% inhibition)
"N#C/C(=C\c1ccc(Cl)c(Cl)c1)C(=O)NC1(c2ccccc2)CCCC1 [Compound 11, (E)-3-(3,4-Dichlorophenyl)-2-cyano-N-(1-phenylcyclopentyl)acrylamide]",25 to 50%,25 to 50%,B (B is 50% to 75% inhibition)
"N#C/C(=C\c1ccc(Cl)c(F)c1)C(=O)NC1(c2ccccc2)CCCC1 [Compound 12, (E)-3-(4-Chloro-3-fluorophenyl)-2-cyano-N-(1-phenylcyclopentyl)acrylamide]",25 to 50%,< 25%,C (C is 25% to 50% inhibition)
"N#C/C(=C\c1ccc(O)cc1)C(=O)NC1(c2ccccc2)CCCC1 [Compound 13, (E)-3-(4-Hydroxyphenyl)-2-cyano-N-(1-phenylcyclopentyl)acrylamide]",< 25%,< 25%,D (D is <25% inhibition)
"COc1ccc(/C=C(\C#N)C(=O)NC2(c3ccccc3)CCCC2)cc1O [Compound 14, (E)-3-(3-Hydroxy-4-methoxyphenyl)-2-cyano-N-(1-phenylcyclopentyl)acrylamide]",< 25%,< 25%,D (D is <25% inhibition)
"N#C/C(=C\c1cccc(Br)n1)C(=O)NC1(c2ccc(Br)cc2)CCCC1 [Compound 15, (E)-N-(1-(4-bromophenyl)cyclopentyl)-3-(6-bromopyridin-2-yl)-2-cyanoacrylamide]",≥ 75%,≥ 75%,A (A is ≧75% inhibition)

# Further lines, with some results ahead:
inhibition at 5 µM [1],SMILES,inhibition at 5 µM [2],PARP cleavage % Inhibition [3]
50 to 75%,"CN(C(=O)/C(C#N)=C/c1cccc(Br)n1)C1(c2ccccc2)CCCC1 [Compound 2-82, (E)-3-(6-bromopyridin-2-yl)-2-cyano-N-methyl-N-(1-phenylcyclopentyl)acrylamide]",≥ 75%,A (A is ≧75% inhibition)
< 25%,"N#C/C(=C\c1cccc(Br)n1)C(=O)NC1(c2cccnc2)CCCC1 [Compound 3-1, (E)-3-(6-bromopyridin-2-yl)-2-cyano-N-(1-(pyridin-3-yl)cyclopentyl) acrylamide]",< 25%,B (B is 50% to 75% inhibition)
25 to 50%,"N#C/C(=C\c1cccc(Br)n1)C(=O)NC1(c2ccncc2)CCCC1 [Compound 3-2, (E)-3-(6-bromopyridin-2-yl)-2-cyano-N-(1-(pyridin-4-yl)cyclopentyl) acrylamide]",50 to 75%,A (A is ≧75% inhibition)
50 to 75%,"N#C/C(=C\c1ncc(Br)cc1Br)C(=O)NC1(c2ccncc2)CCCC1 [Compound 3-3, (E)-2-cyano-3-(3,5-dibromopyridin-2-yl)-N-(1-(pyridin-4-yl)cyclopentyl)acrylamide]",≥ 75%,A (A is ≧75% inhibition)
< 25%,"N#C/C(=C\c1cccc(C#CCn2cccn2)n1)C(=O)NC1(c2ccncc2)CCCC1 [Compound 3-4, (E)-3-(6-(3-(1H-pyrazol-1-yl)prop-1-yn-1-yl)pyridin-2-yl)-2-cyano-N-(1-(pyridin-4-yl)cyclopentyl)acrylamide]",< 25%,B (B is 50% to 75% inhibition)
< 25%,N#C/C(=C\c1cccc(C#CC2(O)CCCC2)n1)C(=O)NC1(c2ccncc2)CCCC1 [Compound 3-5],< 25%,D (D is <25% inhibition)
50 to 75%,"N#C/C(=C\c1cccc(Br)n1)C(=O)NC1(c2ccnc(Cl)c2)CCCC1 [Compound 3-6, (E)-3-(6-bromopyridin-2-yl)-N-(1-(2-chloropyridin-4-yl)cyclopentyl)-2-cyanoacrylamide]",50 to 75%,A (A is ≧75% inhibition)
25 to 50%,"N#C/C(=C\c1cccc(Br)n1)C(=O)NC1(c2ccnc(F)c2)CCCC1 [Compound 3-7, (E)-3-(6-bromopyridin-2-yl)-2-cyano-N-(1-(2-fluoropyridin-4-yl)cyclopentyl)acrylamide]",< 25%,B (B is 50% to 75% inhibition)
